Patent EP1590666B1, “COMPOSITIONS AND METHODS FOR ENHANCING APOPTOSIS” (GENENTECH, INC., priority 2003, dated 2004)

What was measured:
XIAP-BIR3 = XIAP-BIR3 (Homo sapiens, UniProt P98170); assay: fluorescence polarization-based competition assay; format: binding; parameters: X-IAP BIR3 (amino acids residues 241-356); made in house; host or cells: Escherichia coli BL21 (DE3)
Experimental: (§1) The apparent Kd values can be determined from the EC50 values.
(§2) The apparent Kd values were determined from the EC50 values. […] Samples were read after a 10-minute incubation.

XIAP-BIR2 = molecular target: T1, XIAP-BIR2 (Homo sapiens, UniProt P98170, C202A/C213G); assay: fluorescence polarization-based competition assay; format: binding; conditions: Table 3, positional scanning
T1 construct: X-IAP BIR2 (amino acid residues 124-240 with mutations C202A and C213G); made in house; host or cells: Escherichia coli BL21 (DE3)
T1 sequence (P98170 124-240 C202A/C213G): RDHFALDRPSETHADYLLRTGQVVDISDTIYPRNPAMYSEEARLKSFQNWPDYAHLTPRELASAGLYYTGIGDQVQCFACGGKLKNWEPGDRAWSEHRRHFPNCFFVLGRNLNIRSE
Experimental: as §1, §2

ML-IAP-BIR = molecular target: T2, ML-IAP-BIR (Homo sapiens, UniProt Q96CA5); assay: fluorescence polarization-based competition assay; format: binding
T2 construct: made in house; host or cells: Escherichia coli BL21 (DE3)
T2 sequence (Q96CA5 63-179): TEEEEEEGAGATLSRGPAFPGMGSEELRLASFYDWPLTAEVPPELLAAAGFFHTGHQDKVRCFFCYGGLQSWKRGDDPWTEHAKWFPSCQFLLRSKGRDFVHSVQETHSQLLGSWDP
Experimental: as §1, §2

[1] = molecular target: the molecule itself; assay: crystal structure, self-association

Chain of XIAP-BIR3 (P98170 241-356): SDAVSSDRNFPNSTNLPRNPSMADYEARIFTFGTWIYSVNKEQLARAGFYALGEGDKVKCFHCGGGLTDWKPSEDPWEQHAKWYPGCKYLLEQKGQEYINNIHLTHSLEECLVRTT

Row | Molecule | Ki (XIAP-BIR3) | Ki (XIAP-BIR2) | Ki (ML-IAP-BIR) | binding result [1]
1 | CC(C)[C@H](NC(=O)[C@H](C)N)C(=O)N1CCC[C@H]1C(=O)N[C@@H](Cc1ccc(S(=O)(=O)O)cc1)C(=O)N[C@@H](C)C(=O)N[C@@H](CCC(N)=O)C(=O)N[C@@H](CCCCN)C(=O)N[C@@H](CO)C(=O)N[C@@H](CCC(=O)O)C(=O)O [AVPX2AQKSE] | 8.5 µM | – | – | –
2 | CC(C)[C@H](NC(=O)[C@H](C)N)C(=O)N1CCC[C@H]1C(=O)N[C@@H](CC1CCCC1)C(=O)N[C@@H](C)C(=O)N[C@@H](CCC(N)=O)C(=O)N[C@@H](CCCCN)C(=O)N[C@@H](CO)C(=O)N[C@@H](CCC(=O)O)C(=O)O [AVPX7AQKSE] | – | 229 µM | 7.9 µM | –
3 | CC(C)[C@H](NC(=O)[C@H](C)N)C(=O)N1CCC[C@H]1C(=O)N[C@@H](Cc1ccc(I)cc1)C(=O)N[C@@H](C)C(=O)N[C@@H](CCC(N)=O)C(=O)N[C@@H](CCCCN)C(=O)N[C@@H](CO)C(=O)N[C@@H](CCC(=O)O)C(=O)O [AVPX10AQKSE] | 1 µM | 27.7 µM | 0.45 µM | –
4 | ML-IAP-BIR (other, human, UniProt Q96CA5 63-179, looked up, range 63-179; Expressed in E. coli BL21(DE3) from pET15b-MLIAPBIR; also called BIR domain of ML-IAP; not shown: possible N-terminal tag from the pET15b vector (purified on Ni-agarose)) TEEEEEEGAGATLSRGPAFPGMGSEELRLASFYDWPLTAEVPPELLAAAGFFHTGHQDKVRCFFCYGGLQSWKRGDDPWTEHAKWFPSCQFLLRSKGRDFVHSVQETHSQLLGSWDP | – | – | – | binds
